Legend:
[1] = test system: streptozotocin-induced diabetic rats; experiment: Biochemical analysis of serum in diabetic rats at day 14 after daily feeding; type: in vivo, rat; settings: day 14, Standard: injected 5 IU/Kg/day, mean ± S.E.M.
[2] = test system: Salmonella typhimurium ATCC 14028; experiment: Agar Diffusion Test, S. typhimurium; type: cell-based; settings: mean ± S.E.M
Description: (§1) The dried plant extract is ground to fine powder and sieved to obtain uniform powder size and used for pharmaceutical preparation. […] (1991) Antibiotics in Laboratory Medicine, 3rd ed. The pathogenic microbes inhibited by the crude water extract of M. coromandelianum are Staphylococcus aureus, and Salmonella typhimurium. […] [table]

[3] = test system: Pseudomonas aeruginosa ATCC 9721; experiment: Agar Diffusion Test, Ps. aeruginosa; type: cell-based; settings: mean ± S.E.M
Description: as §1

[4] = test system: Staphylococcus aureus ATCC 6538P; experiment: Agar Diffusion Test, S. aureus; type: cell-based; settings: mean ± S.E.M
Description: as §1

[5] = test system: Escherichia coli ATCC 25922; experiment: Agar Diffusion Test, E. coli; type: cell-based; settings: mean ± S.E.M
Description: as §1

[6] = test system: Klebsiella pneumoniae ATCC 10031; experiment: Agar Diffusion Test, K. pneumoniae; type: cell-based; settings: mean ± S.E.M
Description: as §1

Substance	Cholesterol [1]	Glucose [1]	Triglycerides [1]	Diameter of inhibition zone ([2]; 10 μg/ml)	Diameter of inhibition zone ([2]; 20 μg/ml)	Diameter of inhibition zone ([3]; 10 μg/ml)	Diameter of inhibition zone ([3]; 20 μg/ml)	Diameter of inhibition zone ([4]; 10 μg/ml)	Diameter of inhibition zone ([4]; 20 μg/ml)	Diameter of inhibition zone ([5]; 10 μg/ml)	Diameter of inhibition zone ([5]; 20 μg/ml)	Diameter of inhibition zone ([6]; 10 μg/ml)	Diameter of inhibition zone ([6]; 20 μg/ml)
Insulin	225.96 ± 5.51 mg %	409.85 ± 12.52 mg %	388.10 ± 61.85 mg %										
Gentamicin				14.28 ± 0.07 mm	15.88 ± 0.141 mm	8.1 ± 0.00 mm	12.8 ± 0.14 mm	10.00 ± 0.00 mm	12.77 ± 0.14 mm	1.56 ± 0.07 mm	3.78 ± 0.07 mm	16.9 ± 0.00 mm	26.57 ± 0.28 mm

Reference: US20060018978A1, “Botanical compositions having hypoglycemic, hypolipidemic and antimicrobial activities for maintaining good health in normal person and diabetic patient” (priority 2004, published 2006)
